# Reference: PMC11089204 (Frontiers in Pharmacology, 2024)
# Experiments:
# recombinant CYP1A2 = target: T1, recombinant CYP1A2 (Homo sapiens, UniProt P05177); assay: Incubation with recombinant CYP1A2 enzymes; assay type: in vitro ADME; conditions: 1,000 nM psilocin, rec. CYP1A2
# T1 construct: purchased Corning Life Sciences B.V
# Procedure: (§1) Corning UltraPool human liver microsomes (HLM) 150 (20 mg/mL), human intestinal microsomes (HIM) pool (10 mg/mL) as well as recombinant human CYP enzymes (with P450 oxidoreductase, OR) including CYP1A2+OR (0.5 nmol), CYP2B6+OR (0.5 nmol), CYP2C8+OR (1.0 nmol), CYP2C9*1+OR (1 nmol), CYP2C19+OR (0.5 nmol), CYP2D6*1+OR (0.5 nmol), CYP2E1+OR + cytochrome b5 (1 nmol), CYP3A4+OR + cytochrome b5 (0.5 nmol), MAO-A (5 mg/mL), MAO-B (5 mg/mL), and UGT1A10 (5 mg/mL) were purchased from Corning Life Sciences B.V (Amsterdam, Netherlands). All microsomes and recombinant enzyme solutions were aliquoted and stored at −80 °C until further use.
# (§2) The total volume of the reaction mixture was 500 μL. […] Samples were either directly analyzed by liquid chromatography tandem mass spectrometry (LC-MS/MS) or briefly stored at −20°C until analysis.
# recombinant CYP2B6 = target: T2, recombinant CYP2B6 (Homo sapiens, UniProt P20813); assay: Incubation with recombinant CYP2B6 enzymes; assay type: in vitro ADME; conditions: 1,000 nM psilocin, rec. CYP2B6
# T2 construct: purchased Corning Life Sciences B.V
# T2 sequence (P20813 whole entry): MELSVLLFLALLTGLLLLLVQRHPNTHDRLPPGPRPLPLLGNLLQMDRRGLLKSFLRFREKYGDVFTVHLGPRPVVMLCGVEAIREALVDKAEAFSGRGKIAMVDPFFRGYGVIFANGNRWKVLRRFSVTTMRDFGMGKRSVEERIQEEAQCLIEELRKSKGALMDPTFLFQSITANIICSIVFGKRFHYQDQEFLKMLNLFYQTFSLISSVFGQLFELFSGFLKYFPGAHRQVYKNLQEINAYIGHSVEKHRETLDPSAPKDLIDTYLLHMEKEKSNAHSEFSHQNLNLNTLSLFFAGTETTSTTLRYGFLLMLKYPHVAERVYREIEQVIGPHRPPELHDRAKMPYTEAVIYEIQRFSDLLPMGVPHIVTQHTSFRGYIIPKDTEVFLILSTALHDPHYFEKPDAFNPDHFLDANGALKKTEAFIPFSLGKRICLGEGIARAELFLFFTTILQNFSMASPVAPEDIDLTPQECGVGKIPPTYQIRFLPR
# Procedure: as §1, §2
# recombinant CYP2C8 = target: T3, recombinant CYP2C8 (Homo sapiens, UniProt P10632); assay: Incubation with recombinant CYP2C8 enzymes; assay type: in vitro ADME; conditions: 1,000 nM psilocin, rec. CYP2C8
# T3 construct: purchased Corning Life Sciences B.V
# T3 sequence (P10632 whole entry): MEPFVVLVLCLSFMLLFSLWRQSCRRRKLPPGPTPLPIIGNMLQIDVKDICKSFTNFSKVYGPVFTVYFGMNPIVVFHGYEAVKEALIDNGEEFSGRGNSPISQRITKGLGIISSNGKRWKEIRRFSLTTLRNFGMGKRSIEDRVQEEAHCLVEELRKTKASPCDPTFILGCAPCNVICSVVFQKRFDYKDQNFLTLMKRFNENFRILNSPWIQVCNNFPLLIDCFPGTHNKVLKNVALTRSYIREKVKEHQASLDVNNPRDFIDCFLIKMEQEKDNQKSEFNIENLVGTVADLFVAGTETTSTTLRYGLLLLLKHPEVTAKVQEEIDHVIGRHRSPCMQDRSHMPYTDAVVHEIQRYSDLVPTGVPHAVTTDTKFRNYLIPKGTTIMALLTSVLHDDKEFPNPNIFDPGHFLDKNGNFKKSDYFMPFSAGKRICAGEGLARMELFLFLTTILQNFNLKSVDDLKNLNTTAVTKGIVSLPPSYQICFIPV
# Procedure: as §1, §2
# recombinant CYP2C9 = target: T4, recombinant CYP2C9 (Homo sapiens, UniProt P11712); assay: Incubation with recombinant CYP2C9 enzymes; assay type: in vitro ADME; conditions: 1,000 nM psilocin, rec. CYP2C9
# T4 construct: purchased Corning Life Sciences B.V
# T4 sequence (P11712 whole entry): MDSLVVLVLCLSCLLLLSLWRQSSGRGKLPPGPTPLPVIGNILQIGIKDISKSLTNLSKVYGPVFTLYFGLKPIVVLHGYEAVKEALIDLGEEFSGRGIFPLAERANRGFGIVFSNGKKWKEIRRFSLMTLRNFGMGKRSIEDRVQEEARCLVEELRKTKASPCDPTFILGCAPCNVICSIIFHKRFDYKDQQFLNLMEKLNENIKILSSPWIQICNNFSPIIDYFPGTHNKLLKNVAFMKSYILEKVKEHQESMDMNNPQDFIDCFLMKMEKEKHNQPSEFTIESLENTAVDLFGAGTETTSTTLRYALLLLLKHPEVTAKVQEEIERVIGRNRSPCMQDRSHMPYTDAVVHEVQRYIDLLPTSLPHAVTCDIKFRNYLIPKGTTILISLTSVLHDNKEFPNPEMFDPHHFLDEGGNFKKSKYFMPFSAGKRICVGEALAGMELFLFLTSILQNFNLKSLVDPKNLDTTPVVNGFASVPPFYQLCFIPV
# Procedure: as §1, §2
# recombinant CYP2C19 = target: T5, recombinant CYP2C19 (Homo sapiens, UniProt P33261); assay: Incubation with recombinant CYP2C19 enzymes; assay type: in vitro ADME; conditions: 1,000 nM psilocin, rec. CYP2C19
# T5 construct: purchased Corning Life Sciences B.V
# T5 sequence (P33261 whole entry): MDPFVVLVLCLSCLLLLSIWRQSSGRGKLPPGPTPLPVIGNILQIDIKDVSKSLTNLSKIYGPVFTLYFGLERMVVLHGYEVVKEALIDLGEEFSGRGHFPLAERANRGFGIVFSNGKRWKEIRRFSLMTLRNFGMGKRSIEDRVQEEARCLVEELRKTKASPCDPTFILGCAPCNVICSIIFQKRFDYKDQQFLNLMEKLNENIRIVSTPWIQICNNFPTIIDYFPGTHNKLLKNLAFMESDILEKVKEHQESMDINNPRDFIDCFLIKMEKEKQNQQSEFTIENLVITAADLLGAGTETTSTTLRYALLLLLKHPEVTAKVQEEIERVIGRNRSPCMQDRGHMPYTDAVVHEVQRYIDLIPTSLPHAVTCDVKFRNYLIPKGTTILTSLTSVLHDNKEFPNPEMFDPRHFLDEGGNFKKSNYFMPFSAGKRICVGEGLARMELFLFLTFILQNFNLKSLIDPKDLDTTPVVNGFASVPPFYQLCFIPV
# Procedure: as §1, §2
# recombinant CYP2E1 = target: T6, recombinant CYP2E1 (Homo sapiens, UniProt P05181); assay: Incubation with recombinant CYP2E1 enzymes; assay type: in vitro ADME; conditions: 1,000 nM psilocin, rec. CYP2E1
# T6 construct: purchased Corning Life Sciences B.V
# T6 sequence (P05181 whole entry): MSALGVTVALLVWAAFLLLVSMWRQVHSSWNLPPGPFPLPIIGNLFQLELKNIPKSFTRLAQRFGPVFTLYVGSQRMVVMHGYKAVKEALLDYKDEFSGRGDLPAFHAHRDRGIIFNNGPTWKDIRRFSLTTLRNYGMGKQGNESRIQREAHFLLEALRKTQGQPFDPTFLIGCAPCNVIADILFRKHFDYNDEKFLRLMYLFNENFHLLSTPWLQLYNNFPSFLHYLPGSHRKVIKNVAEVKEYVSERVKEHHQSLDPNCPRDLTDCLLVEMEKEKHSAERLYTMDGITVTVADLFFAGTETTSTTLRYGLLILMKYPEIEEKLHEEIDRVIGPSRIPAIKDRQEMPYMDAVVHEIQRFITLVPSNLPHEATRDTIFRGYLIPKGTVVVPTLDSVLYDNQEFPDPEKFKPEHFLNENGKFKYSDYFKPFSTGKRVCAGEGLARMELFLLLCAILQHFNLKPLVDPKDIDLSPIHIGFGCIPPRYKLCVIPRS
# Procedure: as §1, §2
# [1] = tested on: human liver microsomes (HLM); assay: Glucuronidation with human liver microsomes; assay type: in vitro ADME; conditions: 1,000 nM psilocin with HLM and UGT co-factors
# Procedure: as §1, with “use. Co-factors including NADPH regenerating system solution A (25 mM NADP+, 66 mM glucose-6-phosphate, and 66 mM MgCl2 in water), NADPH regenerating system solution B (40 U/mL glucose-6-phosphate dehydrogenase in 5 mM sodium citrate), UGT reaction mix solution A (25 mM uridine 5′-diphospho-glucuronic acid in water), and UGT reaction mix solution B (250 mM Tris-HCl, 40 mM MgCl2, and 0.125 mg/mL alamethicin in water) were also obtained from Corning Life Sciences B.V.” for “use.”
# The assay described in section 2.5.1 was adjusted to suit the glucuronidation system. […] HLM were diluted as described in section 2.5.1, while HIM or UGT1A10 enzymes were diluted 1:40 (end concentration […] and 0.125 mg/mL, respectively) in the reaction mix. […]
# [2] = tested on: human intestinal microsomes (HIM); assay: Glucuronidation with human intestinal microsomes; assay type: in vitro ADME; conditions: for psilocin concentration: absence of HIM
# Procedure: as §1, with “use. Co-factors including NADPH regenerating system solution A (25 mM NADP+, 66 mM glucose-6-phosphate, and 66 mM MgCl2 in water), NADPH regenerating system solution B (40 U/mL glucose-6-phosphate dehydrogenase in 5 mM sodium citrate), UGT reaction mix solution A (25 mM uridine 5′-diphospho-glucuronic acid in water), and UGT reaction mix solution B (250 mM Tris-HCl, 40 mM MgCl2, and 0.125 mg/mL alamethicin in water) were also obtained from Corning Life Sciences B.V.” for “use.”
# The assay described in section 2.5.1 was adjusted to suit the glucuronidation system. […] HLM were diluted as described in section 2.5.1, while HIM or UGT1A10 enzymes were diluted 1:40 (end concentration […] and 0.125 mg/mL, respectively) in the reaction mix. Sampling time points were adjusted to 0, 15, 30, 60, 90, 120, 180, and 240 min.
# [3] = target: T7, recombinant human UGT1A10 (Homo sapiens, UniProt Q9HAW8); assay: Glucuronidation with recombinant UGT1A10; assay type: in vitro ADME; conditions: for psilocin concentration (mean ± SD): 1,000 nM psilocin
# T7 construct: purchased Corning Life Sciences B.V
# T7 sequence (Q9HAW8 26-530): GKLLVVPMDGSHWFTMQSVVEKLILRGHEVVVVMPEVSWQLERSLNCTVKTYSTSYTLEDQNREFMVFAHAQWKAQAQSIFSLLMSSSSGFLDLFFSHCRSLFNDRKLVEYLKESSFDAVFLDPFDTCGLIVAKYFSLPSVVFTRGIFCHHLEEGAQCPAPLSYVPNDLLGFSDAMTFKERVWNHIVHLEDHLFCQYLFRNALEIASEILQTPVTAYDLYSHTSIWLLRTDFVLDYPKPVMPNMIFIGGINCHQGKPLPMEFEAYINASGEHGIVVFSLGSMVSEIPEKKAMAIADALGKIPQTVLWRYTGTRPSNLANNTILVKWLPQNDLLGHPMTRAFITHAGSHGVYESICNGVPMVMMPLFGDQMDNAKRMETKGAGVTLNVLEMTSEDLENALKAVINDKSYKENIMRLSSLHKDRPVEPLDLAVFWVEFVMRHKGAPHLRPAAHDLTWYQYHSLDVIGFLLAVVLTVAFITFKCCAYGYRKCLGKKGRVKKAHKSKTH
# Procedure: as §1
# The assay described in section 2.5.1 was adjusted to suit the glucuronidation system.
# [4] = tested on: dopamine (DAT) transporter; set-up: method as in Rickli et al., 2016; conditions: ref Rickli et al., 2016; cited from earlier work
# [5] = tested on: norepinephrine transporters (NET); set-up: method as in Rickli et al., 2016; conditions: ref Rickli et al., 2016; cited from earlier work
# T1 sequence (P05177 2-516 limits assumed): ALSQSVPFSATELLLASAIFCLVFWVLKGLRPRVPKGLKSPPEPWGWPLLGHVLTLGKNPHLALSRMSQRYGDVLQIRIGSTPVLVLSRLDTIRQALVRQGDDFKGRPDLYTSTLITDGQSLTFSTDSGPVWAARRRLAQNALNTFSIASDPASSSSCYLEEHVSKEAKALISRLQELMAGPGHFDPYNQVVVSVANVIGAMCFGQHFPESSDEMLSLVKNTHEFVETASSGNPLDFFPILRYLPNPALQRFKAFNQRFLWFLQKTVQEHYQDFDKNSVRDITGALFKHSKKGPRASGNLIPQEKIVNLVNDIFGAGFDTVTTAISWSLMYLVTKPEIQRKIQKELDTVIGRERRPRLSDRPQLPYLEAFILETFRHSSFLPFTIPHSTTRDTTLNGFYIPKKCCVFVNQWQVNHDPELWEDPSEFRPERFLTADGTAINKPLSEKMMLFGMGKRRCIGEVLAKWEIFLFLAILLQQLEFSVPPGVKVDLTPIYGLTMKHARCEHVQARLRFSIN
smiles,measurement,setting,value
"CN(C)CCc1c[nH]c2cccc(O)c12 [psilocin, 4-hydroxy-N,N-dimethyltryptamine]",metabolism of psilocin,recombinant CYP1A2,did not metabolize
same,metabolism of psilocin,recombinant CYP2B6,did not metabolize
same,metabolism of psilocin,recombinant CYP2C8,did not metabolize
same,metabolism of psilocin,recombinant CYP2C9,did not metabolize
same,metabolism of psilocin,recombinant CYP2C19,did not metabolize
same,metabolism of psilocin,recombinant CYP2E1,did not metabolize
same,glucuronidation of psilocin,[1],No glucuronidation was observed
same,decrease of psilocin concentration through glucuronidation,"[2]; 1,000 nM psilocin, HIM, 240 min",37%
same,psilocin concentration (mean ± SD),"[2]; HIM, t = 0","1,085 ± 157 nM"
same,psilocin concentration (mean ± SD),"[2]; HIM, t = 240",684 ± 53 nM
same,psilocin concentration,[2]; t = 0,980 ± 77 nM
same,psilocin concentration,[2]; t = 240,893 ± 91 nM
same,psilocin concentration (mean ± SD),"[3]; rec. UGT1A10, t = 0 min","1,029 ± 60 nM"
same,psilocin concentration (mean ± SD),"[3]; rec. UGT1A10, t = 240 min",979 ± 95 nM
same,psilocin concentration,"[3]; absence of UGT1A10, t = 0",980 ± 77 nM
same,psilocin concentration,"[3]; absence of UGT1A10, t = 240",893 ± 91 nM
same,inhibition of DAT,[4],not
same,inhibition of NET,[5],not
